Data on eight compounds can be found in patent US20230087351A1, “METHYL 2-ALLYL-1 -METHYL-3-OXOINDOLINE-2-C[…] 9A-ALLYL-1,2,3,9A-TETRAHYDRO- 9H-PYRROLO[1,2-A]INDOL-9-ONE DERIVATIVES AND RELATED COMPOUNDS FOR USE AS F[…] FOR LABELLING OF DRUGS, AMINO ACIDS AN PROTEINS” (UNIVERSITY OF SALFORD, priority 2019, published 2023).

Broadly, the melting point is the temperature of the solid-liquid transition.

Molecules are shown by their SMILES.

Data set [1] concerns the target δ-opioid receptors (Homo sapiens, UniProt P41143). The conditions noted are these: relative to morphine; cited from earlier work.
Data set [2] has as its target μ-opioid receptors (Homo sapiens, UniProt P35372). The conditions noted are these: relative to morphine; cited from earlier work.

Sequence of δ-opioid receptors (P41143 whole entry): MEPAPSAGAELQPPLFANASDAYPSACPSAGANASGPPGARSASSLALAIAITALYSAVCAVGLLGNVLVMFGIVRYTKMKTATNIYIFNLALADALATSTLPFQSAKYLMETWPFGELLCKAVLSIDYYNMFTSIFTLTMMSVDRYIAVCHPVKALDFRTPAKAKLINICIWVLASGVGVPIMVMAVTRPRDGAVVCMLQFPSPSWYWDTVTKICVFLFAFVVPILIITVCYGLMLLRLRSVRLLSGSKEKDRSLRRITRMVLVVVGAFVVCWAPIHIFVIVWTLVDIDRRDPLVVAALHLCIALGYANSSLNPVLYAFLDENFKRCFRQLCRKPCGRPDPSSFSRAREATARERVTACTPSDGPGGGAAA
Sequence of μ-opioid receptors (P35372 whole entry): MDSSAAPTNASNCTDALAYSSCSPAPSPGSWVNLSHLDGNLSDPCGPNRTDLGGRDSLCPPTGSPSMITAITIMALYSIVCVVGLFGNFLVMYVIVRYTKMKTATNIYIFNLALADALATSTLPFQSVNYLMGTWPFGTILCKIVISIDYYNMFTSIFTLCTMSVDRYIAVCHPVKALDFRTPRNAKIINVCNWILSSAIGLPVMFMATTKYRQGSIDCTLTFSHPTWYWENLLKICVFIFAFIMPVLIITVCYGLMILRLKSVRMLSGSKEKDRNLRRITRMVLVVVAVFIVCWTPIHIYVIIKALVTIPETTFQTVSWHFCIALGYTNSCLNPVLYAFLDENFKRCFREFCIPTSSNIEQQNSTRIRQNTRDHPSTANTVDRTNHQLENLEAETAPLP

With `C=CCC1(C(=O)OC)C(=O)c2ccccc2N1C` (stereo not drawn), the melting point was 90 to 93 °C. Same read-out and setting: then `C=CCC1(C(=O)OC)C(=O)c2c(OC)cccc2N1C` (stereo not drawn), with 125 to 127 °C; and `C=CC(C)(C)C1(C(=O)OC)C(=O)c2c(OC)cccc2N1C` (stereo not drawn), with 86 to 88 °C; and `C=CC(C)C1(C(=O)OC)C(=O)c2c(OC)cccc2N1C` (stereo not drawn), with 89 to 91 °C. The same measure, in the same setting: then `C=CCC1(C(=O)OC)C(=O)c2c(C)cccc2N1C` (stereo not drawn), with 98 to 100 °C; and `C=CCC1(C(=O)OC)C(=O)c2c(ccc3ccccc23)N1C` (stereo not drawn), with 144 to 147 °C. On the same count and under the same terms, then `C=CCC1(C(=O)OC)C(=O)c2cc(OC)ccc2N1C` (stereo not drawn), with 99 to 101 °C. Consider `CC[C@@H]1CN2CC[C@]3(Nc4cccc(OC)c4C3=O)[C@@H]2C[C@@H]1/C(=C\OC)C(=O)OC` [mitrogynine pseudoindoxyl], for which, in data set [1], the “higher potency than morphine at δ-opioid receptors” value is on record as 35 fold. Further, in data set [2], the “higher potency than morphine at μ-opioid receptors” value is reported as 20 fold.
